Data on two compounds can be found in patent US20040106545A1, “Compounds and methods for modulating cell adhesion” (priority 1996, published 2004).

Read-outs that look alike come from different tables or passages of the source. Positions of bridges follow the written chain, without caps; N, C: chain ends. Residues, ends and D or L forms follow the SMILES beside them.

Data set [1] relates to HMVEC. It counts as cell-based, human. Conditions: 3 h. The essentials:
(§1)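 Human primary endothelial cells, fibroblast lines (IAFp2, WI-38) and cancer lines (MDA-MB231, PC-3) receive the CHAVC peptide or the CHGVC control at ≤100 μM. Viability is scored by MTT and DNA synthesis by ^3H-thymidine uptake.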

For data set [2], the system named is HUVEC. The format is cell-based, human. Conditions: 3 h. In a few lines:
as §1

The test system of data set [3] is IAFp2. It counts as cell-based, human. Conditions: 3 h. The essentials:
as §1

Data set [4] concerns MDA-MB231. It counts as cell-based, human. Conditions: 3 h. In a few lines:
as §1

Data set [5] has as its system PC-3. The format is cell-based, human. Conditions: 3 h. In a few lines:
as §1

The test system of data set [6] is WI-38. It counts as cell-based, human. Conditions: 3 h. In a few lines:
as §1

For data set [7], the system named is MDA-MB231. Nature of the data set: Cytotoxicity, MTT assay, MDA-MB231. The format is cell-based, human. In a few lines: as §1
The subject of data set [8] is PC-3. Description: Cytotoxicity, MTT assay, PC-3. The format is cell-based, human. In a few lines:
as §1

Data set [9] can be described thus: Solubility in RPMI. The format is physicochemical. Conditions: 1 mM.
For data set [10], the target named is T1, N-cadherin (Gallus gallus, UniProt P10288).
T1 construct: expressed in transfected cells; host or cells: 3T3 fibroblasts (monolayer)
T1 sequence (P10288 165-912): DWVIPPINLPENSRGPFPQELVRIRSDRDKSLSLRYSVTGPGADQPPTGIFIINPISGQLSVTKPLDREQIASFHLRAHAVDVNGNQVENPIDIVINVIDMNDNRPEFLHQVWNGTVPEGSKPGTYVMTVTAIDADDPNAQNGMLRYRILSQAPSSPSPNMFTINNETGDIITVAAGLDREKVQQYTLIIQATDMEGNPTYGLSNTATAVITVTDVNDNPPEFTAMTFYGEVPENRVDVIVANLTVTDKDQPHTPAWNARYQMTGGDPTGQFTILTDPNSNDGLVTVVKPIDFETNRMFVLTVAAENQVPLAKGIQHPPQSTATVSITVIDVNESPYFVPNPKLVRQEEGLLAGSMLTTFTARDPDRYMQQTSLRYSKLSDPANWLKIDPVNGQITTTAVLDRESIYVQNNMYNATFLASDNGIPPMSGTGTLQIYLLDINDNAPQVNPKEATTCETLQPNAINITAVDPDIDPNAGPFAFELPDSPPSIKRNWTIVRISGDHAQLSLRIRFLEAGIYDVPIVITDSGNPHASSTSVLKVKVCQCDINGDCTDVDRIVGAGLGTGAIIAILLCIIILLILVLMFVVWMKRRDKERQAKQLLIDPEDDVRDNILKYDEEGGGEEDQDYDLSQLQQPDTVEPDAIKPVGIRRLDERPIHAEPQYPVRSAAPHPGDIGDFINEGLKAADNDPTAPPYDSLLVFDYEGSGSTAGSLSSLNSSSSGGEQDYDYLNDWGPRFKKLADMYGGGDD
Description: Neurite outgrowth inhibition, rat neurons (Example 21). The format is cell-based. Conditions: read-out: % Inhibition of neurite outgrowth; 250 μg/mL.

Data set [11] concerns the target T2, N-cadherin (Homo sapiens, UniProt P19022).
T2 sequence (P19022 160-906): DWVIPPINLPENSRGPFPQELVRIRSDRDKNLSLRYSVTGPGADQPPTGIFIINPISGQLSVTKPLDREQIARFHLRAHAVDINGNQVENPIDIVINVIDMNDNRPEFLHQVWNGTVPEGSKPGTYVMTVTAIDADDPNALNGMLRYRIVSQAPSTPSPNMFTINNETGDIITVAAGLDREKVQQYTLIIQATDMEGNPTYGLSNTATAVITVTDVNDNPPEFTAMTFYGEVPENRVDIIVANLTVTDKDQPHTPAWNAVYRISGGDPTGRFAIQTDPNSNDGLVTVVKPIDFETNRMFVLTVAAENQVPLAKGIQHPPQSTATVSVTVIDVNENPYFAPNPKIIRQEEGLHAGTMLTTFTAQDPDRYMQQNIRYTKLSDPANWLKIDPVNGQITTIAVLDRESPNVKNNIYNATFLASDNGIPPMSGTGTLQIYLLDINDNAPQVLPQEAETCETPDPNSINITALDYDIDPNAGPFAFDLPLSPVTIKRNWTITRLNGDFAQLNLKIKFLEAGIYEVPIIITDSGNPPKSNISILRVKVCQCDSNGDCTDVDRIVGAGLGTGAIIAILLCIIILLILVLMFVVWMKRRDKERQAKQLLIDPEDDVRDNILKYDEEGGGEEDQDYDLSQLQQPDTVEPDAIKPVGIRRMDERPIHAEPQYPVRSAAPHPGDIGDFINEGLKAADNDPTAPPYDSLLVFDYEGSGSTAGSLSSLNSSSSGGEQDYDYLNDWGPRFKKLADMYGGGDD
Conditions: cited from earlier work.

Regarding `CC(=O)N[C@H]1CSSC[C@@H](C(N)=O)NC(=O)[C@H](CO)NC(=O)[C@H](C(C)C)NC(=O)[C@H](C)NC(=O)[C@H](Cc2c[nH]cn2)NC1=O` [N—Ac—CHAVSC—NH2, N-Ac-Cys-His-Ala-Val-Ser-Cys-NH2] (Ac-CHAVSC-NH2; disulfide 1-6 (inferred)), the 50% inhibitory concentration (IC50) in data set [1] is above 100 µM; in data set [2], 57 µM; in [3], above 100 µM; in data set [4], 52 µM; in [5], above 100 µM; in data set [6], above 100 µM. The concentration for half-maximal inhibition (IC50) in data set [7] and in [8] was above 100 µM each time. In data set [9], the “solubility in RPMI” value is given as “*Incompletely soluble in RPMI at 1 mM”. In addition, the inhibition at 250 µg/mL in [10] is 0%.

As for “N—AC-CHAVDINGHAVDIC-NH2: cyclic peptide presenting two HAV motifs in an antiparallel fashion (Williams et al. 2002) (Ac-CHAVDINGHAVDIC-NH2; disulfide 1-14 (inferred))”, in data set [11], the “stimulation of neurite outgrowth” value is recorded as “capable of stimulating neurite outgrowth”.
